Test results: patent publication US10960087B2, “Compositions and methods for treatment of diabetic retinopathy” (NOVARTIS AG, priority 2007, dated 2021)
Where two headings read alike, the source gives them in different places.

Experiments:
[1] = system: human mononucleocytes (PBMC) stimulated with staphylococcal enterotoxin B (SEB); assay: cells; type: cell-based
LFA-1 = LFA-1 (Homo sapiens, UniProt P20701); conditions: Lu et al. 2004; cited from earlier work
Sequence of LFA-1 (P20701 26-1170): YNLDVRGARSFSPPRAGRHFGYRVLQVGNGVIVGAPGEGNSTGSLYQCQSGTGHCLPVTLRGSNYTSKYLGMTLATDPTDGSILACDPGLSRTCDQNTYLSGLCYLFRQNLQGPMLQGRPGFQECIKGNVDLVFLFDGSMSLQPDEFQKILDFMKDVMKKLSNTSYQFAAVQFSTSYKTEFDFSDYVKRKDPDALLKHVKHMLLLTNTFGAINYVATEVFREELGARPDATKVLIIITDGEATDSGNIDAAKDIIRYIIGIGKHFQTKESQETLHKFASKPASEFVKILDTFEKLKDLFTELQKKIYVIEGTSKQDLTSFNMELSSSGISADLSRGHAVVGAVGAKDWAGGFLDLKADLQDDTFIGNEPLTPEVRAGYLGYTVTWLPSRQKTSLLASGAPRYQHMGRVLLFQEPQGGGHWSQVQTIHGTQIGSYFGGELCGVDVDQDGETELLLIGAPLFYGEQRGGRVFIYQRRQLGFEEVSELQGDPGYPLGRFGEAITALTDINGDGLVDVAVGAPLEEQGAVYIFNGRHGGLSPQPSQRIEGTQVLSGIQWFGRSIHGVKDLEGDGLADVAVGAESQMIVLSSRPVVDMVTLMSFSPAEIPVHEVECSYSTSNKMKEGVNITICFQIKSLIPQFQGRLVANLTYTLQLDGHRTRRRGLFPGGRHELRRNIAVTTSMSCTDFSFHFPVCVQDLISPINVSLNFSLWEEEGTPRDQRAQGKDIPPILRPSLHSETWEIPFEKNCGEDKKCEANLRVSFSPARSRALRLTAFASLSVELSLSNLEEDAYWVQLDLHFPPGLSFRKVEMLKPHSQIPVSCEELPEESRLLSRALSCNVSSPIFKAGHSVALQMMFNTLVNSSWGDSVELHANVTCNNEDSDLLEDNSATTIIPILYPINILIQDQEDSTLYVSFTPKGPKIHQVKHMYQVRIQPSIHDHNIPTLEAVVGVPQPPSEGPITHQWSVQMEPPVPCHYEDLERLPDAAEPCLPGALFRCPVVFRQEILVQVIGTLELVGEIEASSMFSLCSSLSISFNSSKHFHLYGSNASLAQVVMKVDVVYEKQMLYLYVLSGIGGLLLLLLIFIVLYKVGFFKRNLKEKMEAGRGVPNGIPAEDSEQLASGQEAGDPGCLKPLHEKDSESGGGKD
Sequence of LFA-1 (P05107 23-769 partner): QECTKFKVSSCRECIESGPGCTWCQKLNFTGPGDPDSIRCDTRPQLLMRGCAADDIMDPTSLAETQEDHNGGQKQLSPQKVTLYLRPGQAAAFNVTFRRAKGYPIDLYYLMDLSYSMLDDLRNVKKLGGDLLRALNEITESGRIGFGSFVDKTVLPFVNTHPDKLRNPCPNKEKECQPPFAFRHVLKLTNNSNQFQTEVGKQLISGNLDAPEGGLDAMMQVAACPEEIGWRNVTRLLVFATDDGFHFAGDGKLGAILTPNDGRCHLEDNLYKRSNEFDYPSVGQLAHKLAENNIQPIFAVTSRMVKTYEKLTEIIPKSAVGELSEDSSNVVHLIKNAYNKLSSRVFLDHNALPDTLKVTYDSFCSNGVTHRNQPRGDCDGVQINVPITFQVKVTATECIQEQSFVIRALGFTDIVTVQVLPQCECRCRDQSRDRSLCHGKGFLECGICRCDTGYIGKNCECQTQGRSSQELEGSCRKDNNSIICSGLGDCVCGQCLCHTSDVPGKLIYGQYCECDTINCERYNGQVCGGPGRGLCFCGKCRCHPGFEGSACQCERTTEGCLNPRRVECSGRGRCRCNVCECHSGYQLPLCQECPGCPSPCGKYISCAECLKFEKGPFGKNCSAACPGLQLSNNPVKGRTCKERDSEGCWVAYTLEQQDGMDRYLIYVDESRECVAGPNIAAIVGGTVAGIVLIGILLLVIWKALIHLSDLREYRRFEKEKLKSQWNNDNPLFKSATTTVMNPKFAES

O=C(NC(Cc1cc(=O)[nH]c2ccccc12)C(=O)O)c1ccc(Cl)cc1 (centres unmarked) [Rebamipide]
EC50 ([1]; read-out: EC50 Cytokine Release GM-CSF): > 1000 µM
EC50 ([1]; read-out: EC50 Cytokine Release IFNγ): > 1000 µM
EC50 ([1]; read-out: EC50 Cytokine Release IL-1α): > 1000 µM
EC50 ([1]; read-out: EC50 Cytokine Release IL-1β): > 1000 µM
EC50 ([1]; read-out: EC50 Cytokine Release IL-2): > 1000 µM
EC50 ([1]; read-out: EC50 Cytokine Release IL-3): > 1000 µM
EC50 ([1]; read-out: EC50 Cytokine Release IL-4): > 1000 µM
EC50 ([1]; read-out: EC50 Cytokine Release IL-5): > 1000 µM
EC50 ([1]; read-out: EC50 Cytokine Release IL-6): > 1000 µM
EC50 ([1]; read-out: EC50 Cytokine Release IL-10): > 1000 µM
EC50 ([1]; read-out: EC50 Cytokine Release IL-12p40): > 1000 µM
EC50 ([1]; read-out: EC50 Cytokine Release IL-13): > 1000 µM
EC50 ([1]; read-out: EC50 Cytokine Release IP-10): > 1000 µM
EC50 ([1]; read-out: EC50 Cytokine Release MCP-1): > 1000 µM
EC50 ([1]; read-out: EC50 Cytokine Release MIP-1α): > 1000 µM
EC50 ([1]; read-out: EC50 Cytokine Release TNF-α): > 1000 µM

efalizumab: antibody directed against LFA-1
Mode of antagonism of LFA-1 (LFA-1): directly competitive antagonist of LFA-1
